Data published in patent US20260285850A1, “SUBSTITUTED OXAZOLIDINONES AND IMIDAZOLINONES AS HERBICIDES” (FMC CORPORATION, priority 2023, published 2026).

Columns and labels:
Format in all cases: in vivo
[1] = tested on: barnyardgrass (Echinochloa crus-galli); assay: Test A preemergence soil spray, visual injury rating 0-100; settings: 10 days
Procedure, shortened: (§1)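 Preemergence directed soil spray or postemergence spray (2-10 cm, 1-2 leaf); loam/sand mix; compound in non-phytotoxic solvent + surfactant. Greenhouse, 10 d. Visual injury vs untreated, 0 = none, 100 = complete control.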

[2] = tested on: blackgrass (Alopecurus myosuroides); assay: as above; settings: 10 days
Procedure, shortened: as §1

corn (Zea mays) [3] = assay: as above; settings: 10 days
Procedure, shortened: as §1

[4] = tested on: green foxtail (Setaria viridis); assay: as above; settings: 10 days
Procedure, shortened: as §1

kochia (Bassia scoparia) [5] = assay: as above; settings: 10 days
Procedure, shortened: as §1

[6] = tested on: oat, wild (wild oat, Avena fatua); assay: as above; settings: 10 days
Procedure, shortened: as §1

[7] = tested on: palmer (palmer amaranth, palmer pigweed, Amaranthus palmeri); assay: as above; settings: 10 days
Procedure, shortened: as §1

[8] = tested on: ragweed (common ragweed, Ambrosia artemisiifolia); assay: as above; settings: 10 days
Procedure, shortened: as §1

[9] = tested on: ryegrass, Italian (italian ryegrass, Lolium multiflorum); assay: as above; settings: 10 days
Procedure, shortened: as §1

soybean (Glycine max) [10] = assay: as above; settings: 10 days
Procedure, shortened: as §1

[11] = tested on: wheat (Triticum aestivum); assay: as above; settings: 10 days
Procedure, shortened: as §1

[12] = tested on: barnyardgrass (Echinochloa crus-galli); assay: Test A postemergence application, visual injury rating 0-100
Procedure, shortened: as §1

[13] = tested on: blackgrass (Alopecurus myosuroides); assay: as above
Procedure, shortened: as §1

corn (Zea mays) [14] = assay: as above
Procedure, shortened: as §1

[15] = tested on: galium (catchweed bedstraw, Galium aparine); assay: as above
Procedure, shortened: as §1

[16] = tested on: green foxtail (Setaria viridis); assay: as above
Procedure, shortened: as §1

[17] = tested on: horseweed (Erigeron canadensis); assay: as above
Procedure, shortened: as §1

kochia (Bassia scoparia) [18] = assay: as above
Procedure, shortened: as §1

[19] = tested on: oat, wild (wild oat, Avena fatua); assay: as above
Procedure, shortened: as §1

[20] = tested on: palmer (palmer amaranth, palmer pigweed, Amaranthus palmeri); assay: as above
Procedure, shortened: as §1

[21] = tested on: ragweed (common ragweed, Ambrosia artemisiifolia); assay: as above
Procedure, shortened: as §1

[22] = tested on: ryegrass, Italian (italian ryegrass, Lolium multiflorum); assay: as above
Procedure, shortened: as §1

soybean (Glycine max) [23] = assay: as above
Procedure, shortened: as §1

[24] = tested on: wheat (Triticum aestivum); assay: as above
Procedure, shortened: as §1

[25] = tested on: barnyardgrass (Echinochloa crusgalli); assay: Test B flooded paddy test, visual plant response rating 0-100; settings: 250 g ai/ha, Flood, applied to paddy water, evaluated after 13 days
Procedure, shortened: (§2)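 Visual evaluation after 13 days. Water-applied treatment, 3 cm flood depth held constant, plants at 2-leaf stage at treatment.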

[26] = tested on: ducksalad (Heteranthera limosa); assay: as above; settings: 250 g ai/ha, Flood, applied to paddy water, evaluated after 13 days
Procedure, shortened: as §2

rice (Oryza sativa) = assay: as above; settings: 250 g ai/ha, Flood, applied to paddy water, evaluated after 13 days
Procedure, shortened: as §2

[27] = tested on: sedge, umbrella (small-flower umbrella sedge, Cyperus difformis); assay: as above; settings: 250 g ai/ha, Flood, applied to paddy water, evaluated after 13 days
Procedure, shortened: as §2

[28] = 62 g ai/ha, 0 = no effect, 100 = complete control
[29] = 62 g ai/ha, postemergence, 10 days, 0 = no effect, 100 = complete control
[30] = Postemergence, 16 g ai/ha, greenhouse 10 days, 0 no effect, 100 complete control

For `CC1(C(=O)NC2CC=C(C(=O)NS(=O)(=O)c3ccccc3)C2)CN(c2cc(F)cc(F)c2)C(=O)O1` (racemic) [Compound 104], the “Barnyardgrass plant response rating” value ([1]; 16 g ai/ha, 0 to 100 scale) was 0, the “Barnyardgrass plant response rating (0-100)” value [1, 28] was 20 and the “Blackgrass plant response rating” value ([2]; 16 g ai/ha, 0 to 100 scale) was 0. The “Blackgrass plant response rating (0-100)” value [2, 28] was 0, the “Corn plant response rating” value (corn (Zea mays) [3]; 16 g ai/ha, 0 to 100 scale) was 0 and the “Corn plant response rating (0-100)” value (corn (Zea mays) [3]; [28]) was 0. The “Foxtail, Green plant response rating” value ([4]; 16 g ai/ha, 0 to 100 scale) was 0, the “Foxtail, Green plant response rating (0-100)” value [4, 28] was 30 and the “Kochia plant response rating” value (kochia (Bassia scoparia) [5]; 16 g ai/ha, 0 to 100 scale) was 0. For the same compound, the “Kochia plant response rating (0-100)” value (kochia (Bassia scoparia) [5]; [28]) was 50, the “Oat, Wild plant response rating” value ([6]; 16 g ai/ha, 0 to 100 scale) was 0 and the “Oat, Wild plant response rating (0-100)” value [6, 28] was 0. The “Pigweed, Palmer plant response rating” value ([7]; 16 g ai/ha, 0 to 100 scale) was 0, the “Pigweed, Palmer plant response rating (0-100)” value [7, 28] was 30 and the “Ragweed plant response rating” value ([8]; 16 g ai/ha, 0 to 100 scale) was 20. For the same compound, the “Ragweed plant response rating (0-100)” value [8, 28] was 20, the “Ryegrass, Italian plant response rating” value ([9]; 16 g ai/ha, 0 to 100 scale) was 0 and the “Ryegrass, Italian plant response rating (0-100)” value [9, 28] was 20. The “Soybean plant response rating” value (soybean (Glycine max) [10]; 16 g ai/ha, 0 to 100 scale) was 0, the “Soybean plant response rating (0-100)” value (soybean (Glycine max) [10]; [28]) was 0 and the “Wheat plant response rating” value ([11]; 16 g ai/ha, 0 to 100 scale) was 0. For the same compound, the “Wheat plant response rating (0-100)” value [11, 28] was 20, the “Barnyardgrass plant response rating (0-100)” value [12, 29] was 100 and the “Barnyardgrass plant response rating (0 to 100 scale)” value [12, 30] was 50. The “Blackgrass plant response rating (0-100)” value [13, 29] was 70, the “Blackgrass plant response rating (0 to 100 scale)” value [13, 30] was 0 and the “Corn plant response rating (0-100)” value (corn (Zea mays) [14]; [29]) was 90. The “Corn plant response rating (0 to 100 scale)” value (corn (Zea mays) [14]; [30]) was 0, the “Galium plant response rating (0-100)” value [15, 29] was 70 and the “Galium plant response rating (0 to 100 scale)” value [15, 30] was 30. The “Foxtail, Green plant response rating (0-100)” value [16, 29] was 90, the “Foxtail, Green plant response rating (0 to 100 scale)” value [16, 30] was 40 and the “Horseweed plant response rating (0-100)” value [17, 29] was 30. For the same compound, the “Horseweed plant response rating (0 to 100 scale)” value [17, 30] was 0, the “Kochia plant response rating (0-100)” value (kochia (Bassia scoparia) [18]; [29]) was 90 and the “Kochia plant response rating (0 to 100 scale)” value (kochia (Bassia scoparia) [18]; [30]) was 30. For the same compound, the “Oat, Wild plant response rating (0-100)” value [19, 29] was 30, the “Oat, Wild plant response rating (0 to 100 scale)” value [19, 30] was 0 and the “Pigweed, Palmer plant response rating (0-100)” value [20, 29] was 90. The “Pigweed, Palmer plant response rating (0 to 100 scale)” value [20, 30] was 80, the “Ragweed plant response rating (0-100)” value [21, 29] was 60 and the “Ragweed plant response rating (0 to 100 scale)” value [21, 30] was 40. The “Ryegrass, Italian plant response rating (0-100)” value [22, 29] was 70, the “Ryegrass, Italian plant response rating (0 to 100 scale)” value [22, 30] was 50 and the “Soybean plant response rating (0-100)” value (soybean (Glycine max) [23]; [29]) was 60. The “Soybean plant response rating (0 to 100 scale)” value (soybean (Glycine max) [23]; [30]) was 20, the “Wheat plant response rating (0-100)” value [24, 29] was 90 and the “Wheat plant response rating (0 to 100 scale)” value [24, 30] was 30. The “Plant response rating, Barnyardgrass (0 to 100 scale, 0 is no effect and 100 is complete control)” value [25] was 0, the “Plant response rating, Ducksalad (0 to 100 scale, 0 is no effect and 100 is complete control)” value [26] was 0 and the “Plant response rating, Rice (0 to 100 scale, 0 is no effect and 100 is complete control)” value (rice (Oryza sativa)) was 0. For the same compound, the “Plant response rating, Sedge, Umbrella (0 to 100 scale, 0 is no effect and 100 is complete control)” value [27] was 0.
